Data from the supplement of paper PMC10307832.

Key:
Assay in all cases: relative viability (nuclei count vs DMSO), 5 days (fraction); higher = more cells survive
201T = tested on: 201T
How it was run: (§1)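 Relative viability was taken as the ratio of nuclei in treated wells to nuclei in vehicle wells. Lung cancer cell lines in 1536-well plates received compounds by pin tool one day after seeding, either one drug alone or a fixed anchor-drug dose plus five library-drug doses (not always all listed) in √10 steps. Nuclei were counted on 4× images after 5 days of treatment, and values are medians of duplicate plates.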

ChaGo-K-1 = tested on: ChaGo-K-1
How it was run: as §1

HCC-78 = tested on: HCC-78
How it was run: as §1

HCC-827 = tested on: HCC-827
How it was run: as §1

LCLC-103H = tested on: LCLC-103H
How it was run: as §1

LCLC-97TM1 = tested on: LCLC-97TM1
How it was run: as §1

LOU-NH91 = tested on: LOU-NH91
How it was run: as §1

NCI-H1437 = tested on: NCI-H1437
How it was run: as §1

NCI-H1755 = tested on: NCI-H1755
How it was run: as §1

NCI-H1792 = tested on: NCI-H1792
How it was run: as §1

NCI-H2023 = tested on: NCI-H2023
How it was run: as §1

NCI-H2085 = tested on: NCI-H2085
How it was run: as §1

NCI-H2126 = tested on: NCI-H2126
How it was run: as §1

NCI-H2170 = tested on: NCI-H2170
How it was run: as §1

NCI-H2405 = tested on: NCI-H2405
How it was run: as §1

NCI-H441 = tested on: NCI-H441
How it was run: as §1

NCI-H596 = tested on: NCI-H596
How it was run: as §1

NCI-H650 = tested on: NCI-H650
How it was run: as §1

NCI-H727 = tested on: NCI-H727
How it was run: as §1

RERF-LC-KJ = tested on: RERF-LC-KJ
How it was run: as §1

SK-MES-1 = tested on: SK-MES-1
How it was run: as §1

COCC1(CO)C(=O)C2CCN1CC2 (stereo unspecified) [PRIMA-1MET] + CS(=O)(=O)N1CCN(Cc2cc3nc(-c4cccc5[nH]ncc45)nc(N4CCOCC4)c3s2)CC1 [Pictilisib] (partner 1 µM)
relative viability (201T; first compound 0.2 µM): 0.709 | relative viability (201T; first compound 0.6325 µM): 0.593 | relative viability (201T; first compound 2 µM): 0.525 | relative viability (201T; first compound 6.325 µM): 0.741 | relative viability (201T; first compound 20 µM): 0.694 | relative viability (ChaGo-K-1; first compound 0.2 µM): 0.732 | relative viability (ChaGo-K-1; first compound 0.6325 µM): 0.468 | relative viability (ChaGo-K-1; first compound 2 µM): 0.84 | relative viability (ChaGo-K-1; first compound 6.325 µM): 0.752 | relative viability (ChaGo-K-1; first compound 20 µM): 0.328 | relative viability (HCC-78; first compound 0.2 µM): 0.226 | relative viability (HCC-78; first compound 0.6325 µM): 0.222 | relative viability (HCC-78; first compound 6.325 µM): 0.138 | relative viability (HCC-78; first compound 20 µM): 0.0597 | relative viability (HCC-827; first compound 0.2 µM): 1.33 | relative viability (HCC-827; first compound 0.6325 µM): 0.907 | relative viability (HCC-827; first compound 2 µM): 0.863 | relative viability (HCC-827; first compound 6.325 µM): 1.08 | relative viability (HCC-827; first compound 20 µM): 0.81 | relative viability (LCLC-103H; first compound 0.2 µM): 0.612 | relative viability (LCLC-103H; first compound 0.6325 µM): 0.583 | relative viability (LCLC-103H; first compound 2 µM): 0.457 | relative viability (LCLC-103H; first compound 6.325 µM): 0.583 | relative viability (LCLC-103H; first compound 20 µM): 0.478 | relative viability (LCLC-97TM1; first compound 0.2 µM): 0.127 | relative viability (LCLC-97TM1; first compound 2 µM): 0.234 | relative viability (LCLC-97TM1; first compound 6.325 µM): 0.135 | relative viability (LCLC-97TM1; first compound 20 µM): 0.117 | relative viability (LOU-NH91; first compound 0.2 µM): 0.573 | relative viability (LOU-NH91; first compound 0.6325 µM): 0.474 | relative viability (LOU-NH91; first compound 2 µM): 0.458 | relative viability (LOU-NH91; first compound 6.325 µM): 0.467 | relative viability (LOU-NH91; first compound 20 µM): 0.366 | relative viability (NCI-H1437; first compound 0.2 µM): 0.463 | relative viability (NCI-H1437; first compound 0.6325 µM): 0.481 | relative viability (NCI-H1437; first compound 2 µM): 0.356 | relative viability (NCI-H1437; first compound 6.325 µM): 0.466 | relative viability (NCI-H1437; first compound 20 µM): 0.412 | relative viability (NCI-H1755; first compound 0.2 µM): 0.187 | relative viability (NCI-H1755; first compound 0.6325 µM): 0.421 | relative viability (NCI-H1755; first compound 2 µM): 0.206 | relative viability (NCI-H1755; first compound 6.325 µM): 0.391 | relative viability (NCI-H1755; first compound 20 µM): 0.3 | relative viability (NCI-H1792; first compound 0.2 µM): 0.227 | relative viability (NCI-H1792; first compound 0.6325 µM): 0.223 | relative viability (NCI-H1792; first compound 2 µM): 0.222 | relative viability (NCI-H1792; first compound 6.325 µM): 0.327 | relative viability (NCI-H1792; first compound 20 µM): 0.271 | relative viability (NCI-H2023; first compound 0.2 µM): 0.205 | relative viability (NCI-H2023; first compound 0.6325 µM): 0.196 | relative viability (NCI-H2023; first compound 2 µM): 0.222 | relative viability (NCI-H2023; first compound 6.325 µM): 0.229 | relative viability (NCI-H2023; first compound 20 µM): 0.221 | relative viability (NCI-H2085; first compound 0.2 µM): 0.44 | relative viability (NCI-H2085; first compound 0.6325 µM): 0.419 | relative viability (NCI-H2085; first compound 2 µM): 0.33 | relative viability (NCI-H2085; first compound 6.325 µM): 0.4 | relative viability (NCI-H2085; first compound 20 µM): 0.359 | relative viability (NCI-H2126; first compound 0.2 µM): 0.459 | relative viability (NCI-H2126; first compound 0.6325 µM): 0.485 | relative viability (NCI-H2126; first compound 2 µM): 0.418 | relative viability (NCI-H2126; first compound 6.325 µM): 0.548 | relative viability (NCI-H2126; first compound 20 µM): 0.488 | relative viability (NCI-H2170; first compound 0.2 µM): 0.312 | relative viability (NCI-H2170; first compound 0.6325 µM): 0.276 | relative viability (NCI-H2170; first compound 2 µM): 0.283 | relative viability (NCI-H2170; first compound 6.325 µM): 0.336 | relative viability (NCI-H2170; first compound 20 µM): 0.297 | relative viability (NCI-H2405; first compound 0.2 µM): 0.278 | relative viability (NCI-H2405; first compound 0.6325 µM): 0.497 | relative viability (NCI-H2405; first compound 6.325 µM): 0.359 | relative viability (NCI-H2405; first compound 20 µM): 0.0865 | relative viability (NCI-H441; first compound 0.2 µM): 0.504 | relative viability (NCI-H441; first compound 0.6325 µM): 0.325 | relative viability (NCI-H441; first compound 2 µM): 0.473 | relative viability (NCI-H441; first compound 6.325 µM): 0.411 | relative viability (NCI-H441; first compound 20 µM): 0.264 | relative viability (NCI-H596; first compound 0.2 µM): 0.406 | relative viability (NCI-H596; first compound 0.6325 µM): 0.389 | relative viability (NCI-H596; first compound 2 µM): 0.335 | relative viability (NCI-H596; first compound 6.325 µM): 0.379 | relative viability (NCI-H596; first compound 20 µM): 0.368 | relative viability (NCI-H650; first compound 0.2 µM): 1.14 | relative viability (NCI-H650; first compound 2 µM): 0.867 | relative viability (NCI-H650; first compound 6.325 µM): 1.06 | relative viability (NCI-H650; first compound 20 µM): 0.111 | relative viability (NCI-H727; first compound 0.2 µM): 0.258 | relative viability (NCI-H727; first compound 0.6325 µM): 0.341 | relative viability (NCI-H727; first compound 2 µM): 0.241 | relative viability (NCI-H727; first compound 6.325 µM): 0.178 | relative viability (NCI-H727; first compound 20 µM): 0.109 | relative viability (RERF-LC-KJ; first compound 0.2 µM): 0.538 | relative viability (RERF-LC-KJ; first compound 0.6325 µM): 0.595 | relative viability (RERF-LC-KJ; first compound 2 µM): 0.64 | relative viability (RERF-LC-KJ; first compound 6.325 µM): 0.623 | relative viability (RERF-LC-KJ; first compound 20 µM): 0.624 | relative viability (SK-MES-1; first compound 0.2 µM): 0.449 | relative viability (SK-MES-1; first compound 0.6325 µM): 0.384 | relative viability (SK-MES-1; first compound 2 µM): 0.359 | relative viability (SK-MES-1; first compound 6.325 µM): 0.381 | relative viability (SK-MES-1; first compound 20 µM): 0.349
